This is an account of results in US20050244966A1, “Insulin producing cells” (Ramot At Tel Aviv University Ltd., priority 2003, published 2005).

The experiment has as its system FH-B-TPN cells. As to the kind of experiment: Insulin content of FH-B-TPN cells (RIA/ELISA of cell extracts). Type of experiment: cell-based, human. The following applies: for Insulin content / Fold increase (insulin content): FH-B-TPN cells; for Insulin content / Effect on insulin content of FH-B-TPN cells (in words): RIA; for Fold increase (insulin content): vs CM; for Effect on insulin content of FH-B-TPN cells (in words): in CM, compared with regular medium or with Act-A alone. The protocol:
FH cells were isolated and cultured as described (19), in Dulbecco's modified Eagle's medium containing 25 mM glucose and supplemented with 10% fetal bovine serum (FBS), 100 U/ml penicillin, 100 μg/ml streptomycin, 5 μM hydrocortisone, and 5 μg/ml insulin. A subclone of FH cells that was stably transduced with hTERT, designated FH-B-hTERT (FH-B), was cultured in the same medium, as described (20). FH-B cells transduced with the Pdx1 gene (see below), designated FH-B-TPN cells, were maintained in the same culture medium, with the exception of hydrocortisone and insulin (complete medium CM). For incubation in serum-free medium, the cells were placed in DMEM containing antibiotics, in the presence of 100 ng/ml insulin, 55 ng/ml transferrin, and 50 pg/ml selenium (ITS, Sigma). For all experiments activin A (Cytolab/PreproTech Asia, Rehovot, Israel) was added at a final concentration of 4 nM. except for those aimed at promoting differentiation of FH-B-TPN cells towards the beta-cell phenotype. There, addition of Act-A, as well as betacellulin (BTC, R&D Systems, Minneapolis, Minn.), nicotinamide (NA), exendin-4, and hepatocyte growth factor (HGF) (the last 3 compounds from Sigma-Aldrich) was at concentrations detailed herein below.
Insulin secretion from FH-B-TPN cells was measured by static incubation as previously described (2). Cells were plated in 24-well plates at 10^5 cells per well. The cells were preincubated for 1 hour in Krebs-Ringer buffer (KRB), followed by incubation for the indicated period of time in KRB containing 0.5 mM 1-isobutyl 3-methylxanthine (IBMX) and glucose at various concentrations. The cells were then extracted in acetic acid, and the amount of insulin in the buffer and cell extract was determined by radioimmunoassay (RIA) using the INSIK-5 kit (DiaSorin, Vercelli, Italy) according to the manufacturer. This assay has <20% crossreactivity with proinsulin. In addition, insulin content was determined using an ELISA kit (Diagnostic Systems Laboratories, Webster, Tex. or (Mercodia, Uppsala, Sweden), which recognizes only mature insulin. Insulin content was normalized to total cellular protein, measured by the Bio-Rad (Hercules, Calif.) Protein Assay kit. Human C-peptide in the cell extract was determined using a RIA kit (DiaSorin, Vercelli, Italy) or ELISA kit (Mercodia, Uppsala, Sweden) according to the manufacturers.

In the case of `NC(=O)c1cccnc1` [NA, nicotinamide, reference compound], the “Effect on insulin content of FH-B-TPN cells (in words)” value is listed as “decrease”. Also, where the note is “5 mM in CM (6 d)”, the Insulin content was determined as 122 ± 20 ng/10^6 cells and the “Fold increase (insulin content)” value is 0.6.

As to exendin-4 [reference compound], the “Effect on insulin content of FH-B-TPN cells (in words)” value is given as “decrease”. Besides, under “2-8 nM in CM (6 d)”, the Insulin content stood at 0 ng/10^6 cells and the “Fold increase (insulin content)” value came to 0.
